# Results: ChEMBL document CHEMBL1137487, “Synthesis and biological activities of glycosphingolipid analogues from marine sponge Aplysinella rhax” (Bioorg Med Chem Lett, 2007)
# The source made the active and inactive calls. The calls are words filed in the database; no cut-off is given here.
# Test system: J774.1
# Experiment: Inhibition of LPS-stimulated nitric oxide production in J774.1 cells
# Type: functional, cell-based
# Conditions: Mus musculus
row,Compound,Activity
1,CCCCCCCCCCCCCCC(CCCCCCCCCCCCCC)CO[C@@H]1O[C@H](CO)[C@@H](O[C@@H]2O[C@H](CO)[C@H](O)[C@H](O)[C@H]2NC(C)=O)[C@H](O[C@H]2O[C@H](C)[C@H](O)[C@H](O)[C@H]2O)[C@H]1NC(C)=O,Active
2,CCCCCCCCCCCCCCC(CCCCCCCCCCCCCC)CO[C@@H]1O[C@H](CO)[C@@H](O[C@@H]2O[C@H](CO)[C@H](O)[C@H](O)[C@H]2NC(C)=O)[C@H](O[C@H]2O[C@@H](C)[C@@H](O)[C@@H](O)[C@@H]2O)[C@H]1NC(C)=O (stereo in doubt),Active
3,CCCCCCCCCCCCCCC(CCCCCCCCCCCCCC)CO[C@@H]1O[C@H](CO)[C@@H](O[C@@H]2O[C@H](CO)[C@H](O)[C@H](O)[C@H]2O)[C@H](O[C@H]2O[C@H](C)[C@H](O)[C@H](O)[C@H]2O)[C@H]1NC(C)=O,Active
4,CC(=O)N[C@H]1[C@H](O[C@H]2[C@H](O[C@H]3O[C@H](C)[C@H](O)[C@H](O)[C@H]3O)[C@@H](NC(C)=O)[C@H](OCC[Si](C)(C)C)O[C@@H]2CO)O[C@H](CO)[C@H](O)[C@@H]1O,Active
